Experimental data reported in patent US20230257372A1 (CHONG KUN DANG PHARMACEUTICAL CORP., priority 2020, published 2023).
Like-named read-outs stand apart in the source and are kept apart here.

How the values were obtained:
[1] = system: hippocampal neurons from a Sprague-Dawley (SD) rat fetus; assay: Effect of HDAC6-specific inhibitor on axonal transport of mitochondria in amyloid-beta treated neurons; type: cell-based; settings: transport velocity of mitochondria in neuronal axon after normalization; vehicle = 100%, amyloid beta treatment group = 0%; compound treatment for three hours
Summary of the method: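 Rat E17-18 hippocampal neurons exposed to amyloid-beta fragments […]; after 24 h (day 8 in vitro) compound added for 3 h, mitochondria stained with MitoTracker Red CMXRos. Confocal imaging every 1 s for 1 min gave per-mitochondrion velocity, normalized vehicle = 100%, amyloid-beta = 0%.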

human recombinant HDAC6 = target: T1, human recombinant HDAC6 (Homo sapiens, UniProt Q9UBN7); assay: HDAC6 enzyme activity inhibition (HDAC Fluorimetric Drug Discovery Kit); type: biochemical
T1 construct: purchased Calbiochem Inc. 382180
T1 sequence (Q9UBN7 1-1215): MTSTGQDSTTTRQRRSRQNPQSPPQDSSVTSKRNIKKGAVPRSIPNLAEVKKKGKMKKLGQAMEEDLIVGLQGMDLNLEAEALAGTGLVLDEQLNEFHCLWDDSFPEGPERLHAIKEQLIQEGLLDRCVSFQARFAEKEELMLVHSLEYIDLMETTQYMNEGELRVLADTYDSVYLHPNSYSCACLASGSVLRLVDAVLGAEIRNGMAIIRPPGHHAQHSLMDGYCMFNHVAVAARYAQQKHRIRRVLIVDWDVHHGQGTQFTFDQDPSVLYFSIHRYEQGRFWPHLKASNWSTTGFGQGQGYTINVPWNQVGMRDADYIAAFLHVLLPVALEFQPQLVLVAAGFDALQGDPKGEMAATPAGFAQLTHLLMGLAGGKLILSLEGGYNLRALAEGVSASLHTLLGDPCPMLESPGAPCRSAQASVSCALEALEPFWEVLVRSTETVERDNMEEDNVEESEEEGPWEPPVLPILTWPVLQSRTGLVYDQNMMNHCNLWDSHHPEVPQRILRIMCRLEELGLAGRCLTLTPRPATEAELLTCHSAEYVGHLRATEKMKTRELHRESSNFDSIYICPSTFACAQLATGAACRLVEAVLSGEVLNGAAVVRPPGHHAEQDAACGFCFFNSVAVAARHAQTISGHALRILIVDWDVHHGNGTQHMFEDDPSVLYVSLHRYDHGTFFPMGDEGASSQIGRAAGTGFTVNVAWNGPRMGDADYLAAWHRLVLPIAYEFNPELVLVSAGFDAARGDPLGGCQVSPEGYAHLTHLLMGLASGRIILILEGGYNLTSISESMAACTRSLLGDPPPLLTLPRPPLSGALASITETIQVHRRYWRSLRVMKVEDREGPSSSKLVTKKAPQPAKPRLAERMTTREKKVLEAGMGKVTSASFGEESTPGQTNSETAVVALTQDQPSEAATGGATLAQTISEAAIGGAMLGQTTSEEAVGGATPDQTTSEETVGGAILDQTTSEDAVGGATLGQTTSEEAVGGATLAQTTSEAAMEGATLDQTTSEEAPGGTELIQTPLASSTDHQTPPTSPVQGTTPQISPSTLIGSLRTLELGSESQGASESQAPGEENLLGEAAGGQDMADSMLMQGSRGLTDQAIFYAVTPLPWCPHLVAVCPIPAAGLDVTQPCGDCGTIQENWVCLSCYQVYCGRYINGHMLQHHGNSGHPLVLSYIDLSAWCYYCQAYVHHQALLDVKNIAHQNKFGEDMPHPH
Summary of the method: (§1)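 Five-fold compound dilutions incubated with […] recombinant enzyme and 10 μM fluorogenic Fluor de Lys substrate, 60 min at 30° C. Fluor de Lys Developer II then added for 30 min to generate the fluorescent read-out.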

human recombinant HDAC1 = target: T2, human recombinant HDAC1 (Homo sapiens, UniProt Q13547); assay: HDAC1 enzyme activity inhibition (HDAC Fluorimetric Drug Discovery Kit); type: biochemical; settings: read-out: HDAC1
T2 construct: purchased Enzo Life Science, Inc. BML-SE456
T2 sequence (Q13547 whole entry): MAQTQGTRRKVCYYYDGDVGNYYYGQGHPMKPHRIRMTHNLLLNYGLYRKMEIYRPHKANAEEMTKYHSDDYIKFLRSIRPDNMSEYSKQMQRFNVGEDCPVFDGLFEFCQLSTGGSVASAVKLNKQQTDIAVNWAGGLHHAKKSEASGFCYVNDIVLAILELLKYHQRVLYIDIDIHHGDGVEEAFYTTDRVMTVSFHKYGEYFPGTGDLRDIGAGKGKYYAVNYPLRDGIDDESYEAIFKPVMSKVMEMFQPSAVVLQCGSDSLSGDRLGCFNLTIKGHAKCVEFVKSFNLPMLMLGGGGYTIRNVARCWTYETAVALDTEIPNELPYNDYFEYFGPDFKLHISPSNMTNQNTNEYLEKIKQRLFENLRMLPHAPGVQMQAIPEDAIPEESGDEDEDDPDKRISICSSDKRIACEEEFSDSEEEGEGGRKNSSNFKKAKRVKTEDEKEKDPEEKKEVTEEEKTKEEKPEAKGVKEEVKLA
Summary of the method: as §1

[2] = human recombinant HDAC6, IC50 calculated with GraphPad Prism
[3] = human recombinant HDAC1, IC50 calculated with GraphPad Prism
[4] = human recombinant HDAC6, same protocol as HDAC1
[5] = human recombinant HDAC1, Fluor de Lys substrate, 30° C. 60 minutes

HDAC6 selectivity (fold) (human recombinant HDAC6; HDAC1 IC50 / HDAC6 IC50) | IC50 (human recombinant HDAC6; [2]) [nM] | IC50 (human recombinant HDAC1; [3]) [nM] | HDAC6 selectivity (fold) (human recombinant HDAC6; HDAC6 over HDAC1) | IC50 (human recombinant HDAC6; [4]) [nM] | IC50 (human recombinant HDAC1; [5]) [nM] | Compound | Velocity distribution (%) [1]
7352 | 6.8 | > 50000 |  |  |  | Fc1cc(-c2nnc(C(F)F)o2)ccc1Cn1cc(-c2cccc3[nH]ncc23)nn1 [Compound 4348, 2-(4-((4-(1H-indazol-4-yl)-1H-1,2,3-triazol-1-yl)methyl)-3-fluorophenyl)-5-(difluoromethyl)-1,3,4-oxadiazole] | ** (**, 50%˜100%)
668 | 74.8 | > 50000 |  |  |  | Fc1cc(-c2nnc(C(F)F)o2)ccc1Cn1cc(-c2ccc3c(c2)CCN(C2CCC2)C3)nn1 [Compound 4361, 2-(4-((4-(2-cyclobutyl-1,2,3,4-tetrahydroisoquinolin-6-yl)-1H-1,2,3-triazol-1-yl)methyl)-3-fluorophenyl)-5-(difluoromethyl)-1,3,4-oxadiazole] | ** (**, 50%˜100%)
1358 | 36.8 | > 50000 |  |  |  | Fc1cc(-c2nnc(C(F)F)o2)ccc1Cn1cc(-c2ccc3c(c2)CN(C2CCC2)CC3)nn1 [Compound 4366, 2-(4-((4-(2-cyclobutyl-1,2,3,4-tetrahydroisoquinolin-7-yl)-1H-1,2,3-triazol-1-yl)methyl)-3-fluorophenyl)-5-(difluoromethyl)-1,3,4-oxadiazole] | *** (***, >100%)
715 | 69.9 | > 50000 |  |  |  | FC(F)c1nnc(-c2ccc(Cn3cc(-c4cccc(N5CCN(C6COC6)CC5)c4)nn3)cc2)o1 [Compound 4370, 2-(difluoromethyl)-5-(4-((4-(3-(4-(oxetan-3-yl)piperazin-1-yl)phenyl)-1H-1,2,3-triazol-1-yl)methyl)phenyl)-1,3,4-oxadiazole] | *** (***, >100%)
917 | 54.5 | > 50000 |  |  |  | FC(F)c1nnc(-c2ccc(Cn3cc(-c4cccc(N5CCN(C6CCC6)CC5)c4)nn3)cc2)o1 [Compound 4371, 2-(4-((4-(3-(4-cyclobutylpiperazin-1-yl)phenyl)-1H-1,2,3-triazol-1-yl)methyl)phenyl)-5-(difluoromethyl)-1,3,4-oxadiazole] | ** (**, 50%˜100%)
335 | 14.9 | > 50000 |  |  |  | CCN1CCN(c2cccc(-c3cn(Cc4ccc(-c5nnc(C(F)F)o5)cc4F)nn3)c2)CC1 [Compound 4373, 2-(difluoromethyl)-5-(4-((4-(3-(4-ethylpiperazin-1-yl)phenyl)-1H-1,2,3-triazol-1-yl)methyl)-3-fluorophenyl)-1,3,4-oxadiazole] | *** (***, >100%)
1428 | 35 | > 50000 |  |  |  | Fc1cc(-c2nnc(C(F)F)o2)ccc1Cn1cc(-c2cccc(N3CCN(C4COC4)CC3)c2)nn1 [Compound 4375, 2-(difluoromethyl)-5-(3-fluoro-4-((4-(3-(4-(oxetan-3-yl)piperazin-1-yl)phenyl)-1H-1,2,3-triazol-1-yl)methyl)phenyl)-1,3,4-oxadiazole] | * (*, 0%˜50%)
2427 | 20.6 | > 50000 |  |  |  | CC(C)N1CCC(Nc2cccc(-c3cn(Cc4ccc(-c5nnc(C(F)F)o5)cc4F)nn3)c2F)CC1 [Compound 4432, N-(3-(1-(4-(5-(difluoromethyl)-1,3,4-oxadiazol-2-yl)-2-fluorobenzyl)-1H-1,2,3-triazol-4-yl)-2-fluorophenyl)-1-isopropylpiperidin-4-amine] | *** (***, >100%)
 |  |  | 639 | 78.2 | > 50000 | Fc1cc(-c2nnc(C(F)F)o2)ccc1Cn1cc(-c2cn3ccccc3n2)nn1 [Compound 17201, 2-(difluoromethyl)-5-(3-fluoro-4-((4-(imidazo[1,2-a]pyridin-2-yl)-1H-1,2,3-triazol-1-yl)methyl)phenyl)-1,3,4-oxadiazole] | * (*, 0%˜50%)
 |  |  | 2212 | 22.6 | > 50000 | CC(C)N1CCN(c2cccc(-c3cn(Cc4ccc(-c5nnc(C(F)F)o5)cc4F)nn3)n2)CC1 [Compound 17363, 2-(difluoromethyl)-5-(3-fluoro-4-((4-(6-(4-isopropylpiperazin-1-yl)pyridin-2-yl)-1H-1,2,3-triazol-1-yl)methyl)phenyl)-1,3,4-oxadiazole] | ** (**, 50%˜100%)
 |  |  | 2100 | 23.8 | > 50000 | Fc1cc(-c2nnc(C(F)F)o2)ccc1Cn1cc(-c2ccc(CN3CCC3)cn2)nn1 [Compound 17532, 2-(4-((4-(5-(azetidin-1-yl-methyl)pyridin-2-yl)-1H-1,2,3-triazol-1-yl)methyl)-3-fluorophenyl)5-(difluoromethyl)-1,3,4-oxadiazole] | *** (***, >100%)
 |  |  | 2272 | 22 | > 50000 | Fc1cc(-c2nnc(C(F)F)o2)ccc1Cn1cc(-c2ccc(CN3CCCC3)cn2)nn1 [Compound 17533, 2-(difluoromethyl)-5-(3-fluoro-4-((4-(5-(pyrrolidin-1-ylmethyl)pyridin-2-yl)-1H-1,2,3-triazol-1-yl)methyl)phenyl)-1,3,4-oxadiazole] | * (*, 0%˜50%)
 |  |  | 1319 | 37.9 | > 50000 | CN(C)Cc1ccc(-c2cn(Cc3ccc(-c4nnc(C(F)F)o4)cc3F)nn2)nc1 [Compound 17534, 1-(6-(1-(4-(5-(difluoromethyl)-1,3,4-oxadiazol-2-yl)-2-fluorobenzyl)-1H-1,2,3-triazol-4-yl)pyridin-3-yl)-N,N-dimethylmethanamine] | *** (***, >100%)
 |  |  | 633 | 78.9 | > 50000 | Fc1cc(-c2nnc(C(F)F)o2)cnc1Cn1cc(-c2ccccn2)nn1 [Compound 17983, 2-(difluoromethyl)-5-(5-fluoro-6-((4-(pyridin-2-yl)-1H-1,2,3-triazol-1-yl)methyl)pyridin-3-yl)-1,3,4-oxadiazole] | *** (***, >100%)
 |  |  | 2272 | 22 | > 50000 | Fc1cc(-c2nnc(C(F)F)o2)cnc1Cn1cc(-c2ccc(CN3CCCC3)cc2)nn1 [Compound 18058, 2-(difluoromethyl)-5-(5-fluoro-6-((4-(4-(pyrrolidin-1-ylmethyl)phenyl)-1H-1,2,3-triazol-1-yl)methyl)pyridin-3-yl)-1,3,4-oxadiazole] | *** (***, >100%)
 |  |  | 705 | 70.9 | > 50000 | CN(C)Cc1ccc(-c2cn(Cc3ccc(-c4nnc(C(F)F)o4)cc3F)nn2)cn1 [Compound 18176, 1-(5-(1-(4-(5-(difluoromethyl)-1,3,4-oxadiazol-2-yl)-2-fluorobenzyl)-1H-1,2,3-triazol-4-yl)pyridin-2-yl)-N,N-dimethylmethanamine] | ** (**, 50%˜100%)

Compound | HDAC6 selectivity (fold) (human recombinant HDAC6; HDAC1 IC50 / HDAC6 IC50) | IC50 (human recombinant HDAC6; [2]) [nM] | IC50 (human recombinant HDAC1; [3]) [nM] | HDAC6 selectivity (fold) (human recombinant HDAC6; HDAC6 over HDAC1) | IC50 (human recombinant HDAC6; [4]) [nM] | IC50 (human recombinant HDAC1; [5]) [nM] | Velocity distribution (%) [1]
CN1CCC(Nc2cccc(-c3cn(Cc4ccc(-c5nnc(C(F)F)o5)cc4F)nn3)c2F)CC1 [Compound 4431, N-(3-(1-(4-(5-(difluoromethyl)-1,3,4-oxadiazol-2-yl)-2-fluorobenzyl)-1H-1,2,3-triazol-4-yl)-2-fluorophenyl)-1-methylpiperidin-4-amine] | 2631 | 19 | > 50000 |  |  |  | *** (***, >100%)
